Results reported in patent US6683103B2, “Sulfonamides for treatment of endothelin-mediated disorders” (Texas Biotechnology Corporation, priority 1997, dated 2004).

Legend:
[1] = Oral half-life and peak plasma levels in rat; assay type: in vivo
Source text: As used herein, bioavailability refers to the rate and extent of absorption. Methods for determining bioavailability are well known to those of skill in the art. For example, bioavailability of any of the compounds described herein can be determined empirically by administration of the compound to an animal, followed by taking blood samples over time and measuring the blood concentration of the compound. In vivo half life (t½) is defined as the time it takes for the concentration of the compound in the blood to be reduced by one-half. Estimations of the area under the curve for intravenous administration can be used to estimate the area under the curve for oral administration, yielding bioavailability data. See, e.q., Milo Gibal (1991) Biopharmaceutics and Pharmacology, 4th edition (Lea and Sediger).
Table 4 lists oral half-life, bioavailability, and in vivo activity of selected exemplary compounds. The in vivo activity was measured in a pulmonary hypertension model and is a measure of the activity of the compounds at selected dosages.

[2] = tested on: Pulmonary Hypertension model; assay: Pulmonary hypertension model, in vivo efficacy; set-up: species or system rat; key to in vivo Efficacy: ++ effective at 5 mg/kg; − no effect at 5 mg/kg; + effective at 15 mg/kg; details: Pulmonary Hypertension model
Procedure: As used herein, efficacy refers to the maximal effect that can be produced by a compound. Efficacy can be determined by methods known to those of skill in the art. For example, it can be determined by the properties of the compound and its receptor-effector system and is reflected in the plateau of the concentration-effect curve. In vivo efficacy refers to efficacy which is determined in an animal model. For example, in vivo efficacy of the compounds described herein can be determined by amelioration of hypoxia-induced pulmonary hypertension in rat. In this context, in vivo efficacy refers to the ability of a compound to restore an elevated pulmonary artery pressure to a normal value. […] J. Physiol. […] The in vivo activity was measured in a pulmonary hypertension model and is a measure of the activity of the compounds at selected dosages.

[3] = tested on: ET-1-induced pressor response; assay: ET-1-induced pressor responses in conscious, autonomically blocked rats; assay type: in vivo, rat; details: in 30 min at dosages as low as 30 mg/kg
Procedure: Animals were placed in a restrainer and allowed to regain consciousness. Thirty minutes later autonomic blockade was administered (atropine methyl nitrate, 3 mg/kg, IV, followed by propranalol, 2 mg/kg, IV). An hour later animals received a bolus injection of vehicle (0.5 ml) followed thirty minutes later by intravenous bolus administration of ET-1 (Control, 1 μg/kg). Following recovery from this challenge, test-compounds were administered by intravenous bolus administration (0.5 ml) and then re-challenged with ET-1 thirty minutes later. Results are expressed as the percent inhibition of the ET-1-induced pressor response after administration of the test compound compared to the pressor response induced by the control ET-1 challenge. In some cases a third ET-1 challenge was administered ninety minutes after administration of the test compound.

Papp (Table 4) = assay type: in vitro ADME
[4] = Stability of solutions, percent remaining by HPLC; assay type: physicochemical; details: 150 mg/mL; LABRASOL; 24 h
[5] = tested on: DOCA-salt hypertensive rat; assay: Deoxycorticosterone acetate (DOCA)-salt hypertensive rat model; assay type: in vivo
Procedure: E. Deoxycorticosterone Acetate (DOCA)-Salt Hypertensive Rat Model for Assessing in vivo Activity of Selected Compounds
Selected compounds disclosed herein have been tested for activity in the deoxycorticosterone acetate (DOCA)-salt hypertensive rat model. To perform these tests, silastic MDX4-4210 elastomer implants containing 47 mg (DOCA) were prepared according to the method of Ornmsbee et al. ((1973) the J. Pharm. Sci. 62:255-257). Briefly, DOCA is incorporated into silicon rubber implants for sustained release. To prepare the implants the DOCA is incorporated into unpolymerized silicone rubber, catalyst is added and the mixture is cast in a hemicylindrical shape.
Sprague Dawley rats (7-8 weeks old) were unilaterally nephrectomized under ketamine anesthesia and a DOCA-implant was placed on the left lateral dorsal abdomen of the animal. The rats were allowed to recover for three weeks. During recovery they were permitted free access to normal rat chow and 0.9% NaCl drinking solution in place of drinking water. The rats develop hypertension within 3 weeks.
All animals were used in the tests between 21 and 30 days post surgery. The mean arterial blood pressure in these animals ranged from 165-200 mm Hg.
On the day of experimentation, catheters were inserted under brevital anesthesia into the right femoral artery for measurement of blood pressure, and into the right femoral vein for administration of a selected compound. The animals were placed in a restrainer and allowed to recover for a minimum of 60 min or until a steady mean arterial blood pressure was recorded. At that time, the selected compound or control vehicle was administered either intravenously, as a 60 minute infusion, or orally by oral gavage. Blood pressure was recorded continuously for a further 10 hrs.

| SMILES | Peak Plasma Levels ([1]; in vivo) | POt½ in Rat ([1]; oral) | in vivo Efficacy [2] | reduction of pressure [3] | Papp (Papp (Table 4)) | percent remaining (HPLC) [4] | effect on blood pressure [5] |
| --- | --- | --- | --- | --- | --- | --- | --- |
| Cc1cc2c(cc1CC(=O)c1sccc1S(=O)(=O)Nc1onc(C)c1Cl)OCO2 [N-(4-chloro-3-methyl-5-isoxazolyl)-2-[2-methyl-4,5-(methylenedioxy)phenylacetyl]thiophene-3-sulfonamide] | 173 µg/mL | 4.1 h | ++ | about 30% | 2.32 ×10⁻⁶ cm/s | 90.1% | – |
| Cc1noc(NS(=O)(=O)c2ccsc2C(=O)Cc2ccc3c(c2)OCO3)c1Cl [N-(4-chloro-3-methyl-5-isoxazolyl)-2-[(3,4-(methylenedioxy)phenylacetyl]thiophene-3-sulfonamide] | – | – | – | about 30% | – | – | effective in decreasing blood pressure |
